The record followed here is patent US9284297B2, “Halofuginone analogs for inhibition of tRNA synthetases and uses thereof” (President and Fellows of Harvard College, priority 2008, dated 2016).

Assay [1] relates to Human primary dermal fibroblasts. The assay is described as follows: Inhibition of cell spreading in a fibroblast model. The format is cell-based. Also noted: key: “+++” vs. “++” vs. “+” in general denotes ˜4-fold differences in potency; “+++” vs. “++” vs. “+” in general denotes ˜4-fold differences in potency; “+++” vs. “++” vs. “+” in general denotes ˜4-fold differences in potency; “−” denotes no activity at any dose tested, up to 1000× the effective dose of halofuginone. The following applies: spreading of cells assessed by light microscopy 28 hours after treatment. The protocol:
The ability of halofuginone and analogs thereof to inhibit the spreading of freshly plated primary dermal fibroblasts was examined. Human primary dermal fibroblasts were replated and halofuginone added immediately after replating; spreading of cells was assessed by light microscopy 28 hours after treatment with compound. “+++” vs. “++” vs. “+” in general denotes ˜4-fold differences in potency. “−” denotes no activity at any dose tested, up to 1000× the effective dose of halofuginone.

The subject of assay [2] is translation of luciferase RNA in rabbit reticulocyte lysate. Kind of assay: Translation of a luciferase RNA reporter in rabbit reticulocyte lysate. The assay is classed as biochemical. The following applies: luciferase RNA reporter. Also noted: key to Translational inhibition: “+++” vs. “++” vs. “+” in general denotes ˜4-fold differences in potency; “+++” vs. “++” vs. “+” in general denotes ˜4-fold differences in potency; “+++” vs. “++” vs. “+” in general denotes ˜4-fold differences in potency; “−” denotes no activity at any dose tested, up to 1000× the effective dose of halofuginone. The protocol:
To distinguish these possibilities, the effect of halofuginone on protein translation was examined in an in vitro system (rabbit reticulocyte lysate) in which amino acids are already present at levels adequate to support protein synthesis. […] Distinct tRNA synthetases catalyze the charging of individual tRNA species with their cognate amino acid. To determine which tRNA synthetase is inhibited by halofuginone, several amino acid mixtures were added to the in vitro translation system to determine which, if any, could reverse the inhibition of translation by halofuginone (FIG. 3). […] To examine whether proline could specifically rescue the effect of halofuginone in intact cells, the ability of each amino acid to reverse the effect of halofuginone on eIF2alpha phosphorylation in T-cells or to prevent halofuginone inhibition of Th17 differentiation was tested (FIG. 4). […] Inhibition of EPRS with compounds of the current invention can inhibit Th17 differentiation.
Translation in vitro was performed using rabbit reticulocyte lysates and luciferase mRNA as template. Translation was measured as arbitrary units of luciferase activity using a luminometer based luminescence assay. Log scale presentation of background-subtracted data is shown.
Inhibition of translation of luciferase RNA by halofuginone and analogs thereof was measured as described in FIG. 3 above. Results are shown of translation of a luciferase RNA reporter in a rabbit reticulocyte lysate. “+++” vs. “++” vs. “+” in general denotes ˜4-fold differences in potency. “−” denotes no activity at any dose tested, up to 1000× the effective dose of halofuginone.

Assay [3] has as its system Differentiation of primary naïve T-cells into Th17 cells. Kind of assay: Inhibition of Th17 differentiation of primary naïve T-cells by halofuginone analogs. The assay is classed as cell-based, murine. On the set-up: key: “+++” vs. “++” vs. “+” in general denotes ˜4-fold differences in potency; “+++” vs. “++” vs. “+” in general denotes ˜4-fold differences in potency; “+++” vs. “++” vs. “+” in general denotes ˜4-fold differences in potency; “−” denotes no activity at any dose tested, up to 1000× the effective dose of halofuginone. The following applies: T-cell receptor stimulation+IL-6+TGFb. The protocol: Naïve T-cells were stimulated to differentiate in the presence or absence of 10 nM halofuginone, with 1 mM of the indicated amino acids added to the medium, and stained for Th17 differentiation on day 4. Naïve murine T cells were activated in the presence or absence of TGFβ plus IL-6 as indicated, expanded in for 4 days and restimulated with PMA and ionomycin for intracellular cytokine staining. […] Bars indicate percentage of cells differentiation as Th17 as indicated by IL17 expression.
The effect of different halofuginone and analogs thereof on differentiation of naïve T-cells was assayed as described in legend for FIG. 4 above. Differentiation of primary naïve T-cells into Th17 cells following T-cell receptor stimulation+IL-6+TGFb. “+++” vs. “++” vs. “+” in general denotes ˜4-fold differences in potency. “−” denotes no activity at any dose tested, up to 1000× the effective dose of halofuginone.

Assay [4] deals with CD4+ CD25− T cells (Th1, Th2, iTreg differentiation, proliferation, CD25), CD8+ T cells, B cells. Kind of assay: T and B cell activation, proliferation and Th1, Th2, iTreg differentiation. The format is cell-based, murine. The conditions noted are these: polarizing cytokine conditions; IFNγ, IL-4, Foxp3 expression. The protocol:
Cytokines secreted into media supernatant were measured using the mouse Th1/Th2 cytometric bead array (CBA—BD Pharmingen) in accordance with manufacturers instructions.

Assay [5] deals with Th17 differentiation of CD4+ CD25− T cells. The assay is described as follows: Th17 differentiation of CD4+ CD25− T cells (IL-17+ IFNγ− cells, intracellular cytokine staining). The following applies: activated in the presence of TGFβ plus IL-6, intracellular cytokine staining day 4.
Assay [6] has as its system eIF2α phosphorylation and ATF4 protein levels in CD4+ CD25− T cells. The assay is described as follows: Amino acid response (AAR) pathway activation in T cells, western blot. The format is cell-based, mice. The conditions noted are these: 4 hours; 10 nM HF or 1 μg/ml tunicamycin. The protocol:
CD4+ CD25− T cells purified from wild type of GCN2−/− mice were activated through TCR for 4 hours in the presence of halofuginone (10 nM) or 9 (MAZ1310, 10 nM). Whole cell lysates were analyzed by SDS PAGE/Western blot and antibodies indicated.
Naïve T-cells were treated to stimulate the T-cell receptor (TCR) in the presence or absence of 10 nM halofuginone in the presence of 1 mM added amino acid, and then assayed for eIF2alpha activity phosphorylation by SDS PAGE/Western blot.
HF induced detectable eIF2α phosphorylation at 2.5 nM, and this effect plateaued at 5-10 nM HF (FIG. 7D). […] AAR activation was a general consequence of HF treatment; HF induced eIF2α phosphorylation, not only in T cells activated in Th17-priming conditions, but also in resting naïve T cells and T cells activated in ThN, Th1, Th2, and iTreg polarizing conditions (FIG. 7F). […] Thus, the rapid activation of the AAR pathway by HF could underlie both its selective inhibition of Th17 differentiation and its effects on fibroblasts (Pines and Nagler, Gen. Pharmacol. 30:445, 1998).
To delineate the stress response pathway activated by HF, the effects of amino acid starvation with those of tunicamycin (an inducer of ER stress) or HF treatment during T cell activation were compared.
Whole cell lysates were generated from T cells activated for the indicated times. For STAT3 and Smad2/3 western blots cells were harvested, washed in PBS and lysed in 50 mM Tris, pH 7.4, 0.1% SDS, 1% Triton-X100, 140 mM NaCl, 1 mM EDTA, 1 mM EGTA supplemented with protease inhibitors tablets (Roche, Germany), 1 mM NaF and 1 mM Na3VO4. For eIF2α and ATF4 western blots, cells were harvested as above and lysed in 50 mM Tris, pH 7.4, 2% SDS, 20% glycerol and 2 mM EDTA supplemented with protease and phosphatase inhibitors as above. All lysates were cleared via centrifugation and 15-30 μg of protein was resolved by SDS-PAGE. Protein was transferred to nitrocellulose membranes, blocked and blotted using specific antibodies. Antibodies used for western blot analysis were anti-phospho-Smad2, anti-STAT3 (pY705), anti-STAT3, anti-eIF2α^pS51, anti-eIF2α (all from Cell Signaling Technology, Danvers, Mass.). Anti-ATF4/CREB2 and anti-β-actin were purchased from Santa Cruz Biotechnology (Santa Cruz, Calif.). HRP-conjugated secondary antibodies were all purchased from Sigma, with the exception of HRP-conjugated anti-armenian hamster antibody (Jackson Immunoresearch, West Grove, Pa.).
Background: Immunoblotting shows a protein as a band on a membrane.

Consider `NCCOCCOCCNC(=O)CCCC#Cc1cc2ncn(CC(=O)CC3NCCCC3O)c(=O)c2cc1Cl` (stereo not drawn) [Compound 8, N-(2-(2-(2-aminoethoxy)ethoxy)ethyl)-6-(6-chloro-3-(3-((2S/R,3R/S)-3-hydroxypiperidin-2-yl)-2-oxopropyl)-4-oxo-3,4-dihydroquinazolin-7-yl)hex-5-ynamide], for which the Fibroblast inhibition entry in assay [1] is “+”. Moreover, the Translational inhibition result in assay [2] is on record as “+”.
Turning to `C#Cc1cc2ncn(CC(=O)CC3NCCCC3O)c(=O)c2cc1Cl` (stereo not drawn) [Compound 7, 6-chloro-7-ethynyl-3-(3-((2S/R,3R/S)-3-hydroxypiperidin-2-yl)-2-oxopropyl)quinazolin-4(3H)-one], the Fibroblast inhibition result in assay [1] is “+++”. In assay [2], the Translational inhibition entry is reported as “+++”. In assay [3], the “Inhibition of Th17 differentiation” value is on record as “+++”.
For the molecule `C[Si](C)(C)C#Cc1cc2ncn(CC(=O)CC3NCCCC3O)c(=O)c2cc1Cl` (stereo not drawn) [Compound 5, 6-chloro-3-(3-((2S/R,3R/S)-3-hydroxypiperidin-2-yl)-2-oxopropyl)-7-((trimethylsilyl)ethynyl)quinazolin-4(3H)-one], the Fibroblast inhibition entry in assay [1] is given as “++”.
For `COC(=O)CCCCC(=O)N/N=C(/CC1NCCCC1O)Cn1cnc2cc(Br)c(Cl)cc2c1=O` (stereo not drawn) [Compound 12, methyl 6-((Z)-2-(1-(7-bromo-6-chloro-4-oxoquinazolin-3(4H)-yl)-3-((2S/R,3R/S)-3-hydroxypiperidin-2-yl)propan-2-ylidene)hydrazinyl)-6-oxohexanoate], in assay [1], the Fibroblast inhibition result is listed as “++”. For the same molecule, the Translational inhibition entry in assay [2] is recorded as “++”.
Take `C#Cc1cc2ncn(CC(=O)CC3NCCCC3O)c(=O)c2cc1Cl` (stereo not drawn) [MAZ1320]: the “effect on Th1, Th2, iTreg differentiation” value in assay [4] is listed as “without inhibiting Th1 differentiation”. For the same molecule, in assay [5], the “inhibition of Th17 differentiation / IL-17 expression (in words)” value is “selectively inhibit the differentiation of Th17 cells”.
In the case of `O=C(CC1NCCCC1O)Cn1cnc2ccccc2c1=O` (stereo not drawn) [Compound 3, febrifugine], the Fibroblast inhibition result in assay [1] was “++”. Moreover, the Translational inhibition result in assay [2] was “++”. Also, the “Inhibition of Th17 differentiation” value in assay [3] is listed as “++”.
Take tunicamycin: the “effect on Th1, Th2, iTreg differentiation” value in assay [4] was “preferentially impaired Th1 and Th2 differentiation”. For the same molecule, the “stress response pathway: eIF2α phosphorylation, ATF4 expression, Xbp-1 splicing” value in assay [6] was “induced eIF2α phosphorylation and ATF4 expression together with Xbp-1 splicing”. For the same molecule, in assay [5], the “inhibition of Th17 differentiation / IL-17 expression (in words)” value was “had little influence on IL-17 expression in T cells”.
In the case of `O=C(CC1NCCCC1O)Cn1cnc2cc(Br)c(Cl)cc2c1=O` (single isomer, unassigned) [L-enantiomer], in assay [5], the “inhibition of Th17 differentiation / IL-17 expression (in words)” value was “completely inactive”.
“N-(6-((Z)-2-(1-(7-bromo-6-chloro-4-oxoquinazolin-3(4H)-yl)-3-((2S/R,3R/S)-3-hydroxypiperidin-2-yl)propan-2-ylidene)hydrazinyl)-6-oxohexyl)-6-(5-(2-oxohexahydro-1H-thieno[3,4-d]imidazol-4-yl)pentanamido)hexanamide [Compound 13]”: the Fibroblast inhibition result in assay [1] is reported as “++”. Further, the Translational inhibition result in assay [2] is “++”. Besides, the “Inhibition of Th17 differentiation” value in assay [3] is listed as “++”.
On to `N/N=C(/CC1NCCCC1O)Cn1cnc2cc(Br)c(Cl)cc2c1=O` (stereo not drawn) [MAZ1686], for which, in assay [4], the “effect on Th1, Th2, iTreg differentiation” value is “without inhibiting Th1 differentiation”. The “inhibition of Th17 differentiation / IL-17 expression (in words)” value in assay [5] is “selectively inhibit the differentiation of Th17 cells”.
Consider `N[C@H](CO)Cc1c[nH]c2ccccc12` [L-tryptophanol], for which the “inhibition of Th17 differentiation / IL-17 expression (in words)” value in assay [5] is reported as “impaired IL-17 production”; in assay [5] (listed as tryptophanol), “inhibited Th17 differentiation”.
`CC(=O)N/N=C(/CC1NCCCC1O)Cn1cnc2cc(Br)c(Cl)cc2c1=O` (stereo not drawn) [Compound 14, (Z)—N′-(1-(7-bromo-6-chloro-4-oxoquinazolin-3(4H)-yl)-3-((2S/R,3R/S)-3-hydroxypiperidin-2-yl)propan-2-ylidene)acetohydrazide]: in assay [2], the Translational inhibition entry is “++”.
On to `O=C(CC1NCCCC1O)Cn1cnc2cc(Br)c(Cl)cc2c1=O` (single isomer, unassigned) [D-enantiomer of HF], for which the “inhibition of Th17 differentiation / IL-17 expression (in words)” value in assay [5] was “inhibited IL-17 expression more potently than a racemic mixture”.
For the molecule `CCOP(=O)(OCC)OC1CCCNC1CC(=O)Cn1cnc2cc(Br)c(Cl)cc2c1=O` (stereo not drawn) [Compound 16, (2S/R,3R/S)-2-(3-(7-bromo-6-chloro-4-oxoquinazolin-3(4H)-yl)-2-oxopropyl)piperidin-3-yl diethyl phosphate], the Fibroblast inhibition entry in assay [1] is recorded as “−”. The Translational inhibition entry in assay [2] is “−”.
As for `C[C@@H]1C[C@H](C)C[C@H](C)[C@@H](O)CC(=O)O[C@H]([C@@H]2CCC[C@H]2C(=O)O)C/C=C/C=C(/C#N)[C@H](O)[C@@H](C)C1` [Borrelidin], the “effect on Th1, Th2, iTreg differentiation” value in assay [4] was “without affecting Th1, Th2, or Treg differentiation or cell number”. In assay [5], the “inhibition of Th17 differentiation / IL-17 expression (in words)” value is “inhibits Th17 differentiation”.
